Results: patent US11873486B2, “Modulating dsRNA editing, sensing, and metabolism to increase tumor immunity and improve the efficacy of cancer immunotherapy and/or modulators of intratumoral interferon” (Dana-Farber Cancer Institute, Inc., priority 2017, dated 2024)
Entries after “also recorded” stand apart in the source; their conditions may differ.

What was measured:
[1] = test system: ADAR1 knockout A549 cells; assay: Viability of ADAR1 knockout A549 cells with interferon or drug treatment; format: cell-based, human
Experimental: For drug treatment assays, cells were plated at a density of 3000 cells per well in a 96-well assay plate. The following day, cells were treated with ruxolitinib (INCB018424) from Selleck Chemicals; MRT67307 hydrocloride (SML0702) from Sigma-Aldrich; human interferon-alphal (#8927) from Cell Signaling; recombinant human IFN-beta 1a (mammalian) protein (114151) and recombinant human IFN-gamma protein (285-IF-100) from R&D Systems. For preincubation drug treatment experiments, cells were plated in the presence of ruxolitinib and were treated with interferon-0 and ruxolitinib the following day. Control wells were treated with dimethylsulfoxide (DMSO). Cell viability was assayed 3 or 6 days after drug treatment with CellTiter-Glo® Luminescent Cell Viability Assay kit (Promega). Viability was normalized to DMSO controls.
for interferon treatment assays, cells were plated at a low density of 3000 cells per well in a 96-well assay plate. The following day, cells were treated with human interferon-alpha 1 (Cell Signaling, #8927) or recombinant human IFN-beta 1a (mammalian) protein (PBL Assay Science, 114151). Control wells were treated with water. Cell viability was assayed 3 or 6 days after drug treatment with CellTiter-Glo© Luminescent Cell Viability Assay kit (Promega). Viability was normalized to controls. Apoptosis was assayed 3 days after interferon treatment with Caspase-Glo®3/7 Assay kit (Promega). Dose curves were obtained using least-squares nonlinear regression on a standard four-parameter logistic model using GraphPad Prism.

[2] = test system: A549 ADAR1 knockout cells; assay: Immunoblot of interferon regulated genes in ADAR1 knockout cell lines; format: cell-based, human; conditions: 500 nM
Experimental: (§1) Cells were lysed in RIPA lysis buffer (Thermo Scientific) supplemented with 1× protease and phosphatase inhibitor cocktails (Roche). Protein extracts were analyzed by standard immunoblotting with the following antibodies: ADAR1 (D7E2M), MDA5 (D74E4), RIG-I (D14G6), ISG15 (22D2), USP18 (D4E7), PKR (#3072), STING (D2P2F), cGAS (D1D3G), IRF9 (D2T8M), PD-L1 (E1L3N), P-IRF3 Ser396 (4D4G), IRF3 (D6I4C), P-TBK1 Ser172 (D52C2), TBK1 (D1B4), P-EIF2α Ser51 (#9721), and EIF2α (D7D3) from Cell Signaling; P-PKR Thr446 (ab32036) from Abcam; R-actin C4 (sc-47778) from Santa Cruz. All antibodies were used at a dilution of 1:1000 except R-actin which was used at 1:4000). The following secondary antibodies were used at 1:5000 dilution: Goat anti-Rabbit IRDye 800CW (LI-COR, 926-32211) and Goat anti-Mouse IRDye […] (LI-COR, 926-68020). All immunoblots were imaged using the LI-COR digital imaging system and ImageJ.

ADAR1 = assay: Immunoblot of ADAR1 after CRISPR-Cas9 knockout; format: cell-based, human; conditions: A549 cells
Experimental: as §1
guide RNA sequences were designed using the sgRNA designer tool on The RNAi Consortium (TRC) portal (available on the World Wide Web at portals.broadinstitute.org/gpp/public/analysis-tools/sgrnadesign). […] Guide sequences were cloned into the Cas9 expressing lentiviral vector CRISPRv2 (available on the World Wide Web at genomeengineering.org/crispr). For virus production, each CRISPRv2 vector and packaging vectors were introduced into 293T cells via calcium phosphate transfection (Clontech). […]

[3] = test system: HCC366, NCI-H1650 and NCI-H196 cell lines; assay: Cell viability after CRISPR-Cas9 knockout of ADAR1 (CellTiter-Glo); format: cell-based, human; conditions: 6 days after CRISPR-Cas9 knockout of ADAR1
Excerpt: (§2) guide RNA sequences were designed using the sgRNA designer tool on The RNAi Consortium (TRC) portal (available on the World Wide Web at portals.broadinstitute.org/gpp/public/analysis-tools/sgrnadesign). […] Guide sequences were cloned into the Cas9 expressing lentiviral vector CRISPRv2 (available on the World Wide Web at genomeengineering.org/crispr). For virus production, each CRISPRv2 vector and packaging vectors were introduced into 293T cells via calcium phosphate transfection (Clontech). Lentivirus was harvested in RPMI media supplemented with 10% FBS and filtered before addition to each cancer cell line. Infected cells were selected in 2 μg/ml puromycin or 10 μg/ml blasticidin for 7 days. Following this, protein lysates were harvested or cells were plated for proliferation assays in 96 well plates and grown in the presence of RPMI containing 10% FBS and 1 μg/ml puromycin or 5 μg/ml blasticidin. Immunoblotting confirmed decreased protein levels of each gene across the pool of infected cells. For cell viability experiments, cells were plated at a density of 3000 cells per well in a 96-well assay plate. Cell viability was assayed 3 and 6 days later with the CellTiter-Glo® Luminescent Cell Viability Assay kit (Promega). […]

A549 cells = assay: Cell viability after CRISPR-Cas9 knockout of ADAR1, control cells; format: cell-based, human; conditions: 6 days after CRISPR-Cas9 knockout of ADAR1
Excerpt: as §2

ADAR = assay: Western blot of ADAR isoforms in B16 cells; format: cell-based, mouse; conditions: with or without IFNβ addition
Experimental: Whole cell lysates were prepared in lysis buffer (60 mM Tris HC, 2% SDS, 10% glycerol, complete EDTA-free protease-inhibitor (Roche, Basel, Switzerland), and 500 U/mL benzonase nuclease (Novagen, Merck, Darmstadt, Germany)). Samples were boiled at 100° C. and clarified by centrifugation. Protein concentration was measured with a BCA protein assay kit (Pierce, Dallas, Texas). Fifty to one hundred and fifty micrograms of protein was loaded on 4-12% Bolt® Bis-Tris Plus gels (Life Technologies, Carlsbad, CA) in MES buffer (Life Technologies). Protein was transferred to 0.45 μm nitrocellulose membranes (Bio-Rad, Hercules, CA). Membranes were blocked in Tris-buffered saline plus 0.1% Tween 20 (TBS-T) containing 5% non-fat dry milk for 1 hour at room temperature followed by overnight incubation with primary antibody at 4° C. Membranes were washed with TBS-T and incubated with HRP-conjugated secondary antibodies for 1 hour at room temperature. […] Blots were then analyzed using ImageJ and Adobe® Photoshop® software. […]
Whole cell lysates were prepared in lysis buffer (60 mM Tris HCl, 2% SDS, 10% glycerol, complete EDTA-free protease-inhibitor (Roche), and 500 U/mL benzonase nuclease (Novagen)). […] Protein concentration was measured with a BCA protein assay kit (Pierce). […] Blots were then analyzed using ImageJ and Adobe Photoshop software. […]

B16 tumor cells [4] = assay: In vitro cytokine stimulation and growth inhibition assay; format: cell-based, mouse; conditions: Adar-deficient versus control B16 tumor cells, 72 hours
Experimental: (§3) FIG. 9 includes 3 panels, identified as panels A, B, and C, which provide exemplary mechanisms of ADAR-induced sensitivity to checkpoint blockade. […] A certain number of B16 tumor cells (50 k; Adar null or control) were stimulated in vitro with cytokine for 72 hours and the cell numbers were then counted. […] A certain number of B16 tumor cells (50 k; Adar null or control) were stimulated with cytokine in vitro, washed to remove cytokine (for IFNβ), and evaluated via IFNβ ELISA. […] A certain number of B16 tumor cells (50 k; Adar null or control) were stimulated in vitro with cytokine for 72 hours and stained for Class I MHC and PD-L1.
Tumor cells were engineered as noted above and plated in DMEM+10% FBS containing the indicated combinations of cytokines: IFN (1,000 U/ml, PBL), IFN (100 ng/ml, Cell Signaling Technologies), TNF (10 ng/ml, PreproTech). For rescue/re-expression experiments, 10,000 cells were plated in 96-well plates and viable cells were enumerated after 72 hours using Cell Titer-Glo® (Promega, G7570). For all other growth inhibition assays, 50,000 cells were plated in 12-well plates and viable cells were counted after 72 hours using the Countess automated cell counting system (Thermo Fisher Scientific, C10227).

B16 tumor cells [5] = assay: IFNβ ELISA of tumor cell supernatant; format: cell-based, mouse; conditions: Adar-deficient B16 tumor cells
Experimental: as §3
Cells were seeded at a density of 10,000 cells per well in a 96-well plate. Mouse interferon beta (pbl assay science) was then added. After 24 hrs of incubation at 37° C., the supernatant was aspirated from the wells to remove the mouse interferon beta. The wells were then gently washed once with media. Fresh warm media was then replaced in the wells. After 48 hrs of incubation at 37° C., the supernatant was collected, and the concentration of interferon beta was determined using The VeriKine Mouse Interferon Beta ELISA Kit (pbl assay science).

In the case of Nc1ncn([C@@H]2O[C@H](CO)[C@@H](O)[C@H]2O)c(=O)n1 [azacitidine, 5-azacytidine], the “sensitization to ADAR1 knockout” value [1] is reported as “sensitized A549 cells to ADAR1 knockout”, the “expression of MDA5” value [2] is reported as “induced expression of interferon regulated gene MDA5” and the “phosphorylation of EIF2α” value [2] is reported as “increased phosphorylation of EIF2α”.

In the case of “AGATAGCCATGCTGAGCCAC (chemistry not fully specified) [ADAR1 sg2]”, the “ADAR1 protein (immunoblot)” value (ADAR1) is reported as “knockout of ADAR1 isoforms p150 and p110”, the viability [3] is reported as “decreased viability” and the viability (A549 cells) is reported as “no effect on control cells”.

In the case of “CACCGTCTACAGCCCTACCTTGCCA (antisense AAACTGGCAAGGTAGGGCTGTAGAC; listed as DNA, chemistry not fully specified) [Mouse Adar sgRNA 2, P110 and P150]”, the “depletion of ADAR isoforms (Western blot)” value (ADAR) is reported as “effectively depleted both isoforms”.

In the case of “CACCGTCTGGATTCACAACTCCAGG (antisense AAACCCTGGAGTTGTGAATCCAGAC; listed as DNA, chemistry not fully specified) [Mouse Adar sgRNA1, P150 only]”, the “depletion of ADAR isoforms (Western blot)” value (ADAR) is reported as “effectively depleted the P150 isoform of ADAR, but not the P110 isoform of ADAR”.

In the case of “GTGCATACACTCAAGCAGTG (chemistry not fully specified) [ADAR1 sg1]”, the “ADAR1 protein (immunoblot)” value (ADAR1) is reported as “knockout of ADAR1 isoforms p150 and p110”, the viability [3] is reported as “decreased viability” and the viability (A549 cells) is reported as “no effect on control cells”.

B1: IFNβ: mouse interferon beta (1000 U/mL, PBL) used on B16 cells (protein, UniProt P01575 22-182, looked up)
Interferon beta: INYKQLQLQERTNIRKCQELLEQLNGKINLTYRADFKIPMEMTEKMQKSYTAFAIQEMLQNVFLVFRNNFSSTGWNETIVVRLLDELHQQTVFLKTVLEEKQEERLTWEMSSTALHLKSYYWRVQRYLKLMKYNSYAWMVVRAEIFRNFLIIRRLTRNFQN
For B1, the cytokine-induced growth arrest (B16 tumor cells [4]) was “increases IFNβ and IFNγ-induced growth arrest; also recorded: increases susceptibility to IFNβ and IFNγ” and the “IFNβ secretion after interferon stimulation” value (B16 tumor cells [5]) was “make IFNβ when stimulated with IFNβ”.
